The assay addresses T1, NS2/3 protease (Hepatitis C virus genotype 1b, UniProt P26663).
T1 construct: In a well defined assay system using purified NS2/3 (904-1206) and an optimized cleavage buffer; made in house; host or cells: E. coli BL21(DE3)pLysS
Nature of the assay: biochemical. The conditions noted are these: for trans-cleavage of the peptide by NS2/3 protease: identical assay conditions, data not shown. Also noted: species or system Hepatitis C virus (HCV) genotype 1b. Here is the method:
NS2/3 protease cleavage-site derived peptides were evaluated as potentially competing substrates (Table 1). NS2/3 protease cleavage-site derived peptides and NS4A-derived peptides were synthesized in-house using the standard solid-phase methodology or were made by Multiple Peptide Systems (San Diego, Calif.). Various concentrations of peptides were pre-incubated with 0.54 μM NS2/3 protease for 30 min at 23° C. in 50 mM Hepes, pH 7.0, and 50% (w/v) glycerol. The autocleavage reaction was initiated by addition of n-dodecyl-β-D-maltoside to a final concentration of 0.5%. The final DMSO content never exceeded 5% (v/v). The resulting mixture was then incubated for 3 h at 23° C. The reaction was stopped and quantified.

For orientation: IC50 means the concentration needed to halve the response being measured. High values mean weaker potency, low ones greater potency.

Where a SMILES comes first, the peptide text is derived from it.

For `CC[C@H](C)[C@H](NC(=O)[C@@H]1CCCN1C(=O)[C@H](C)NC(=O)[C@H](CC(C)C)NC(=O)[C@H](CC(C)C)NC(=O)[C@H](CCCNC(=N)N)NC(=O)[C@H](Cc1c[nH]c2ccccc12)NC(=O)CNC(=O)[C@H](CCC(N)=O)NC(=O)CNC(=O)[C@H](CCC(=O)O)NC(=O)[C@H](Cc1ccccc1)NC(=O)[C@@H](N)CO)C(=O)N[C@H](C(=O)N[C@@H](C)C(=O)N[C@@H](Cc1ccc(O)cc1)C(=O)N[C@@H](CO)C(=O)N[C@@H](CCC(N)=O)C(=O)N[C@@H](CCC(N)=O)C(=O)N[C@H](C(=O)O)[C@@H](C)O)[C@@H](C)O` [Peptide 1, SFEGQGWRLL-APITAYSQQT], inhibition was half-maximal at 270 µM (IC50) and the “trans-cleavage of the peptide by NS2/3 protease” value is “no trans-cleavage”.
`CC(C)C[C@H](NC(=O)[C@H](CC(C)C)NC(=O)[C@H](CCCNC(=N)N)NC(=O)[C@H](Cc1c[nH]c2ccccc12)NC(=O)CNC(=O)[C@H](CCC(N)=O)NC(=O)CNC(=O)[C@H](CCC(=O)O)NC(=O)[C@H](Cc1ccccc1)NC(=O)[C@@H](N)CO)C(=O)O` [Peptide 2, SFEGQGWRLL] (H-SFEGQGWRLL-OH; N-terminus and C-terminus assumed) registered an IC50 of 90 µM.
Same read-out and setting: as for `CC[C@H](C)[C@H](NC(=O)[C@@H]1CCCN1C(=O)[C@H](C)N)C(=O)N[C@H](C(=O)N[C@@H](C)C(=O)N[C@@H](Cc1ccc(O)cc1)C(=O)N[C@@H](CO)C(=O)N[C@@H](CCC(N)=O)C(=O)N[C@@H](CCC(N)=O)C(=O)N[C@H](C(=O)O)[C@@H](C)O)[C@@H](C)O` [Peptide 3, APITAYSQQT] (H-APITAYSQQT-OH), the figure is more than 1000 µM.
`CC[C@H](C)[C@H](NC(=O)[C@@H]1CCCN1C(=O)[C@H](C)NC(=O)[C@H](CC(C)C)NC(=O)[C@H](CC(C)C)NC(=O)[C@H](CCCNC(=N)N)NC(=O)[C@H](Cc1c[nH]c2ccccc12)NC(=O)CNC(=O)[C@@H](N)CCCCN)C(=O)N[C@H](C(=O)N[C@@H](C)C(=O)N[C@@H](Cc1ccc(O)cc1)C(=O)O)[C@@H](C)O` [Peptide 4, KGWRLL-APITAY]: the IC50 was found to be 630 µM and the “trans-cleavage of the peptide by NS2/3 protease” value is listed as “no trans-cleavage”.
Compound `CC[C@H](C)[C@H](NC(=O)[C@@H]1CCCN1C(=O)[C@H](C)N)C(=O)N[C@H](C(=O)N[C@@H](C)C(=O)N[C@@H](Cc1ccc(O)cc1)C(=O)O)[C@@H](C)O` [Peptide 5, APITAY] (H-APITAY-OH) gave a 50% inhibitory concentration (IC50) of 1000 µM.

For the origin of these results see patent publication US7264811B2, “Purified active HCV NS2/3 protease” (priority 2000, dated 2007).
